Where two headings read alike, the source gives them in different places.
Experiments:
[1] = biological target: human RORγt ligand binding domain (RORγt LBD) (Homo sapiens (Human), UniProt P51449); test: RORγt ThermoFluor® assay (thermal shift binding)
In short: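 His-tagged human RORγt LBD (0.065 mg/mL) with 60 μM 1,8-ANS in 100 mM Hepes pH 7.0, 10 mM NaCl, 2.5 mM GSH, 0.002% Tween-20 was heated at 1 °C/min.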

full-length human RORγt = full-length human RORγt (Homo sapiens (Human), UniProt P51449); test: RORγt (full-length human) reporter assay, Conditions B or C; type: cell-based; conditions: for inhibition at 3 µM: at 3 μM compound concentration, read-out: RORγt (FL) Reporter Assay B or C, % inhibition; for RORγt (FL) Reporter Assay B or C, % inhibition (value marked *): marked *: footnote not given; for inhibition at 6 µM: read-out: RORγt (FL) Reporter Assay B or C, % inhibition @ 6 μM, Conditions B or C
In short: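 HEK293T cells transiently co-transfected with GAL4-DBD–full-length human RORγt (nt 142-1635, NM_001001523.1) plus GAL4-firefly and CMV-Renilla luciferase reporters; compounds added 4-6 h post-transfection for 16-20 h in 1.3% FBS, 0.1% DMSO. Firefly signal normalized to DMSO and saturating reference compound, then to Renilla; IC50 from concentration plots.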

[2] = read-out: ThermoFluor® Assay, Kd
[3] = read-out: RORγt (FL) Reporter Assay B or C, IC50
[4] = Conditions B or C, read-out: RORγt (FL) Reporter Assay B or C, IC50

Sequence of human RORγt ligand binding domain (RORγt LBD) (P51449 other isoform, or with tags, fused parts or gaps): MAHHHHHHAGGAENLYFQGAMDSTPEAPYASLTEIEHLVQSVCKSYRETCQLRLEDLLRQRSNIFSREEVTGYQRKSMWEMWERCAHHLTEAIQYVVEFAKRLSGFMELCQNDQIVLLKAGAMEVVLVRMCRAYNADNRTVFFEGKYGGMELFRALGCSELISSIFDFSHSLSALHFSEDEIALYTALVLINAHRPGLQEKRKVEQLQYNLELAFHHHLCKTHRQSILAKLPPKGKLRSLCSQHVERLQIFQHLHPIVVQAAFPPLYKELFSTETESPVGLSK
Sequence of full-length human RORγt (P51449 other isoform, or with tags, fused parts or gaps): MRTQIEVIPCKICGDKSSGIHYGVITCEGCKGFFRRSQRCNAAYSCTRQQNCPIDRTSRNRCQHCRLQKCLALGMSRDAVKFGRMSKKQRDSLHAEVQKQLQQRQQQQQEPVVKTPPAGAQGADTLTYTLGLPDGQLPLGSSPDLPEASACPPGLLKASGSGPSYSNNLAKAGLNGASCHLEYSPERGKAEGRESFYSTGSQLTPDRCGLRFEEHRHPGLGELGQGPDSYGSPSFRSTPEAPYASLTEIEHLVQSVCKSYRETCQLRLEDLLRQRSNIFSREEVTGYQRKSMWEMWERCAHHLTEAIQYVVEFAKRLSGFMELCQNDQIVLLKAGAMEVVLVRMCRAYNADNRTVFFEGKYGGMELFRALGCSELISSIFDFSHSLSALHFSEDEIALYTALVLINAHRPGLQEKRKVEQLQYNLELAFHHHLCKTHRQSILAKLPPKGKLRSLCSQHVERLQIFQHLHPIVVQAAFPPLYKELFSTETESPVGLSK

Row | SMILES | Kd [1, 2] [µM] | inhibition at 3 µM (full-length human RORγt) [%] | IC50 (full-length human RORγt; [3]) [µM] | RORγt (FL) Reporter Assay B or C, % inhibition (value marked *) (full-length human RORγt; Conditions B or C) | IC50 (full-length human RORγt; [4]) [µM] | further results
1 | C[C@H](NC(=O)c1nc(C(=O)N2CCC[C@@H]2C)c(-c2cnc(N[C@@H](C3CC3)C(F)(F)F)cc2C(F)F)s1)C(C)(C)O [Example 312, 5-(6-(((S)-1-Cyclopropyl-2,2,2-trifluoroethyl)amino)-4-(difluoromethyl)pyridin-3-yl)-N—((S)-3-hydroxy-3-methylbutan-2-yl)-4-((S)-2-methylpyrrolidine-1-carbonyl)thiazole-2-carboxamide] | 0.0022 | 106 | 0.027 |  |  | 
2 | C[C@H]1CCCN1C(=O)c1nc(C(=O)N2CC(O)C2)sc1-c1cnc(NC(C)(C)C)cc1C(F)(F)F [Example 250, [5-[6-(tert-Butylamino)-4-(trifluoromethyl)-3-pyridyl]-2-(3-hydroxyazetidine-1-carbonyl)thiazol-4-yl]-[(2S)-2-methylpyrrolidin-1-yl]methanone] | 0.0081 | 106 | 0.028 |  |  | 
3 | CC[C@H](Nc1cc(C(F)F)c(-c2sc(C(=O)N[C@@H]3C[C@@H]3O)nc2C(=O)N2CCC[C@@H]2C)cn1)C(F)(F)F (relative stereo) [Example 211, 5-(4-(Difluoromethyl)-6-(((S)-1,1,1-trifluorobutan-2-yl)amino)pyridin-3-yl)-N-((1R*,2S*)-2-hydroxycyclopropyl)-4-((S)-2-methylpyrrolidine-1-carbonyl)thiazole-2-carboxamide] | 0.0082 |  |  | 104* % | 0.014 | 
4 | CC[C@@H](Nc1cc(C(F)(F)F)c(-c2sc(C(=O)NCC(C)(C)O)nc2C(=O)N2CCC[C@@H]2C)cn1)C(F)(F)F [Example 282, N-(2-Hydroxy-2-methyl-propyl)-4-[(2S)-2-methylpyrrolidine-1-carbonyl]-5-[4-(trifluoromethyl)-6-[[(1R)-1-(trifluoromethyl)propyl]amino]-3-pyridyl]thiazole-2-carboxamide] | 0.0014 | 109 | 0.019 |  |  | 
5 | CC[C@H](Nc1cc(C(F)F)c(-c2sc(C(=O)N[C@H](C)[C@@H](C)O)nc2C(=O)N2CCC[C@@H]2C)cn1)C(F)(F)F (relative stereo) [Example 216, 5-(4-(Difluoromethyl)-6-(((S)-1,1,1-trifluorobutan-2-yl)amino)pyridin-3-yl)-N-((2R*,3R*)-3-hydroxybutan-2-yl)-4-((S)-2-methylpyrrolidine-1-carbonyl)thiazole-2-carboxamide] | 0.0041 |  |  | 96* % | 0.0095 | 
6 | C[C@H](Nc1cc(C(F)(F)F)c(-c2sc(C(=O)N[C@@H]3COC[C@@H]3O)nc2C(=O)N2C3CCC2CC3)cn1)C(F)(F)F (single isomer, unassigned) [Example 228, 4-((1s,4s)-7-Azabicyclo[2.2.1]heptane-7-carbonyl)-N-((3R*,4R*)-4-hydroxytetrahydrofuran-3-yl)-5-(4-(trifluoromethyl)-6-(((S)-1,1,1-trifluoropropan-2-yl)amino)pyridin-3-yl)thiazole-2-carboxamide] |  |  |  |  |  | Kd ([1]; ThermoFluor® Assay, Kd (μM)): 0.0023 µM; RORγt (FL) Reporter Assay B or C, % inhibition (value marked ***) (full-length human RORγt; Conditions B or C, marked ***: footnote not given): 91*** %; IC50 (full-length human RORγt; RORγt (FL) Reporter Assay B or C, IC50 (μM), Conditions B or C): 0.095 µM
7 | C[C@H]1CC(F)(F)CN1C(=O)c1nc(C(=O)N[C@H]2COC[C@@H]2O)sc1-c1cnc(NC2(C)CCC2)cc1C(F)(F)F [Example 186] | 0.00018 |  |  | 98* % | 0.016 | 
8 | C[C@H](Nc1cc(C(F)(F)F)c(-c2sc(C(=O)NCC(C)(C)O)nc2C(=O)N2CCCC[C@@H]2C)cn1)C1CC1 [Example 39, 5-(6-(((S)-1-Cyclopropylethyl)amino)-4-(trifluoromethyl)pyridin-3-yl)-N-(2-hydroxy-2-methylpropyl)-4-((S)-2-methylpiperidine-1-carbonyl)thiazole-2-carboxamide] | 0.00012 |  |  |  | 0.013 | inhibition at 6 µM (full-length human RORγt): 105%
9 | C[C@H](Nc1cc(C(F)F)c(-c2sc(C(=O)N[C@H](C)C(C)(C)O)nc2C(=O)N2C3CCC2CC3)cn1)C(F)(F)F [Example 445, 4-((1s,4s)-7-Azabicyclo[2.2.1]heptane-7-carbonyl)-5-[4-(difluoromethyl)-6-[[(1S)-2,2,2-trifluoro-1-methyl-ethyl]amino]-3-pyridyl]-N-[(1R)-2-hydroxy-1,2-dimethyl-propyl]thiazole-2-carboxamide] | 0.012 | 73 | 0.096 |  |  | 
10 | C[C@H](Nc1cc(C(F)F)c(-c2sc(C(=O)NC3CCC3O)nc2C(=O)N2C3CCC2CC3)cn1)C(F)(F)F (stereo partly drawn) [Example 290, 4-((1s,4s)-7-Azabicyclo[2.2.1]heptane-7-carbonyl)-5-(4-(difluoromethyl)-6-(((S)-1,1,1-trifluoropropan-2-yl)amino)pyridin-3-yl)-N-(-trans-2-hydroxycyclobutyl)thiazole-2-carboxamide] | 0.0063 | 103 | 0.0065 |  |  | 
11 | C[C@H]1CCCCN1C(=O)c1nc(C(=O)NCC(C)(C)O)sc1-c1cnc(N[C@H]2CCCCC2(F)F)cc1C(F)(F)F (relative stereo) [Example 32, 5-(6-(((S*)-2,2-Difluorocyclohexyl)amino)-4-(trifluoromethyl)pyridin-3-yl)-N-(2-hydroxy-2-methylpropyl)-4-((S)-2-methylpiperidine-1-carbonyl)thiazole-2-carboxamide] | 0.00026 |  |  |  | 0.0022 | inhibition at 6 µM (full-length human RORγt): 109%
12 | CC[C@H](Nc1cc(C(F)F)c(-c2sc(C(=O)N[C@@H]3CC[C@@H](O)C3)nc2C(=O)N2CC(F)(F)C[C@@H]2C)cn1)C(F)(F)F [Example 424, 4-[(2S)-4,4-Difluoro-2-methyl-pyrrolidine-1-carbonyl]-5-[4-(difluoromethyl)-6-[[(1S)-1-(trifluoromethyl)propyl]amino]-3-pyridyl]-N-[(1R,3R)-3-hydroxycyclopentyl]thiazole-2-carboxamide] | 0.00023 | 98 | 0.063 |  |  | 
13 | C[C@H](CO)NC(=O)c1nc(C(=O)N2CCC[C@@H]2C)c(-c2cnc(NC(C)(C)C)cc2C(F)F)s1 [Example 148, 5-(6-(tert-Butylamino)-4-(difluoromethyl)-3-pyridyl)-N-((1R)-2-hydroxy-1-methyl-ethyl)-4-((2S)-2-methylpyrrolidine-1-carbonyl)thiazole-2-carboxamide] | 0.0064 |  |  | 95* % | 0.025 | 
14 | CC[C@H](Nc1cc(C(F)F)c(-c2sc(C(=O)NC3CCC3O)nc2C(=O)N2CCC[C@@H]2C)cn1)C(F)(F)F (stereo partly drawn) [Example 375, 5-(4-(Difluoromethyl)-6-(((S)-1,1,1-trifluorobutan-2-yl)amino)pyridin-3-yl)-N-(trans-2-hydroxycyclobutyl)-4-((S)-2-methylpyrrolidine-1-carbonyl)thiazole-2-carboxamide] | 0.0057 | 105 | 0.029 |  |  | 
15 | C[C@@H](Nc1cc(C(F)(F)F)c(-c2sc(C(=O)NCC(C)(C)O)nc2C(=O)N2C3CCC2CC3)cn1)C1CCC1 (stereo in doubt) [Example 172, 4-((1s,4s)-7-Azabicyclo[2.2[1]heptane-7-carbonyl)-5-(6-(((R*)-1-cyclobutylethyl)amino)-4-(trifluoromethyl)pyridine-3-yl)-N-(2-hydroxy-2-methylpropyl)thiazole-2-carboxamide] | 0.0012 |  |  | 102* % | 0.039 | 

Reference: patent US10975068B2, “6-aminopyridin-3-yl thiazoles as modulators of RORγT” (Janssen Pharmaceutica NV, priority 2016, dated 2021)
